Consider 2 molecules from patent publication US20220112515A1, “Method for Producing Virus-Infected Cell Line and Animal Model” (INDUSTRY-ACADEMIC COOPERATION FOUNDATION, YONSEI UNIVERSITY, priority 2018, published 2022).

Test [1] relates to HepG2 cell line. Kind of test: HBV infection of HepG2 cell line with tCDCA-mixed HBV. Particulars: HBV mixed with 100 μmol/L tCDCA. The test is classed as cell-based, human. Here is the method: (§1) In addition, […] was performed using an anti-HBcAg antibody, to measure a level of HBcAg present. Specifically, 100 μl/well of anti-HBcAg antibody (10E11) (cat no. MA1-7608; Thermo Fisher, USA) was added to a micro ELISA plate, and the reaction was allowed to proceed at 4° C. overnight. Then, 200 μl/well of 1× ELISA/ELISPOT Diluent (Invitrogen, USA) was additionally added thereto, and the reaction was allowed to proceed for 1 hour. Each of the HBV-infected cell lines produced was dispensed into each well, in which the reaction had been completed, and the reaction was allowed to proceed for 2 hours. Then, the anti-HBcAg antibody (10E11) diluted in a ratio of 1:30 with 100 μl of 1× ELISA/ELISPOT Diluent was added to the plate, and the reaction was allowed to proceed for 1 hour. Then, the additional reaction with 100 μl of HRP-conjugated anti-rabbit IgG was allowed to proceed for 30 minutes. Here, as a positive control, PLC/PRF5 cell line (human liver-derived cell line that releases HBV surface antigen) was used, and levels of HBsAg and HBcAg present therein were measured.

The test system of test [2] is Huh-7 cell line. Kind of test: HBV infection of Huh-7 cell line with tCDCA-mixed HBV. The test is classed as cell-based, human. Particulars: HBV mixed with 100 μmol/L tCDCA. Here is the method:
as §1

The subject of test [3] is A498 cell line. Put plainly: HBV infection of A498 cell line with tCDCA-mixed HBV. The test is classed as cell-based, human. Particulars: HBV mixed with 100 μmol/L tCDCA. On the procedure:
as §1

The subject of test [4] is MDA-MB-231 cell line. Kind of test: HBV infection of MDA-MB-231 cell line with tCDCA-mixed HBV. The test is classed as cell-based, human. The following applies: HBV mixed with 100 μmol/L tCDCA. On the procedure:
as §1

For test [5], the system named is Jurkat cell line. Kind of test: HBV infection of Jurkat cell line with tCDCA-mixed HBV. The test is classed as cell-based, human. Particulars: HBV mixed with 100 μmol/L tCDCA. Here is the method:
as §1

A further test relates to HeLa cell line. Put plainly: HBV infection of HeLa cell line with tCDCA-mixed HBV. The test is classed as cell-based, human. Particulars: HBV mixed with 100 μmol/L tCDCA. On the procedure:
as §1

Test [6] relates to Hepa1c1c7 cell line. Put plainly: HBV infection of Hepa1c1c7 cell line with tCDCA-mixed HBV. The test is classed as cell-based, mouse. Particulars: HBV mixed with 100 μmol/L tCDCA. Here is the method:
as §1

For test [7], the system named is H4-II-E cell line. Put plainly: HBV infection of H4-II-E cell line with tCDCA-mixed HBV. The test is classed as cell-based, rat. The following applies: HBV mixed with 100 μmol/L tCDCA. Here is the method: as §1
The next test relates to RAG cell line. Put plainly: HBV infection of RAG cell line with tCDCA-mixed HBV. The following applies: HBV mixed with 100 μmol/L tCDCA. The test is classed as cell-based, mouse. Here is the method: as §1
In test [8] the test system is EL4 cell line. Put plainly: HBV infection of EL4 cell line with tCDCA-mixed HBV. The test is classed as cell-based, mouse. The following applies: HBV mixed with 100 μmol/L tCDCA. Here is the method:
as §1

The subject of test [9] is LC540 cell line. Kind of test: HBV infection of LC540 cell line with tCDCA-mixed HBV. The following applies: HBV mixed with 100 μmol/L tCDCA. The test is classed as cell-based, rat. On the procedure:
as §1

Test [10] deals with HepG2 cell line. Kind of test: HCV infection of HepG2 cell line with tCDCA-mixed HCV. The test is classed as cell-based, human.
Test [11] concerns Huh-7 cell line. Kind of test: HCV infection of Huh-7 cell line with tCDCA-mixed HCV. The test is classed as cell-based, human.
Procedure: (§5) The levels of HCV core and HCV RNA present were measured in each of the HCV-infected cell lines produced and the culture medium collected therefrom. Specifically, measurement of HCV RNA was performed by requesting a specialized inspection agency (Biogeno Korea Co., Ltd., Korea) that utilizes the Roche's COBAS TaqMan system. Here, as a control, a group treated with only HCV without a bile acid derivative was used.
The subject of a further test is A549 cell line. Kind of test: HCV infection of A549 cell line with tCDCA-mixed HCV. The test is classed as cell-based, human.
Test [12] has as its system A498 cell line. Kind of test: HCV infection of A498 cell line with tCDCA-mixed HCV. The test is classed as cell-based, human.
Test [13] concerns MDA-MB-231 cell line. Put plainly: HCV infection of MDA-MB-231 cell line with tCDCA-mixed HCV. The test is classed as cell-based, human.
The test system of test [14] is Jurkat cell line. Put plainly: HCV infection of Jurkat cell line with tCDCA-mixed HCV. The test is classed as cell-based, human.
Procedure: as §5
Test [15] concerns EL4 cell line. Put plainly: HCV infection of EL4 cell line with tCDCA-mixed HCV. The test is classed as cell-based, mouse.
Procedure: as §5
The subject of test [16] is LC540 cell line. Put plainly: HCV infection of LC540 cell line with tCDCA-mixed HCV. The test is classed as cell-based, rat.
Procedure: as §5
Test [17] concerns H4-II-E cell line. Particulars: HCV mixed with tCA. From the text:
(§2) For production of enveloped virus-infected cell line models, HBV (1×10^6 copies/ml/well of HBV) isolated in Example 1 above was mixed with 100 μmol/L of taurochenodeoxycholic acid (hereinafter referred to as ‘tCDCA’), and HCV (1×10^6 IU/ml/well of HCV) isolated in Example 1 above was mixed with tCDCA or taurocholic acid (hereinafter referred to as ‘tCA’). Here, tCA was mixed with HCV and used to infect mouse hepatocytes; and tCDCA was used in all other cases.
(§3) A cell line (HepG2, Huh-7, A549, A-498, MDA-MB-231, Jurkat, HeLa, Hepa1c1c7, EL4, H4-II-E, LA-4, LC540, or RAG cell line) at 5×10^6 cells/ml was dispensed into each well of a 6-well plate, and culture was performed for 24 hours. Then, the tCDCA or tCA solution mixed with HBV or HCV was added thereto, and culture was further performed for 24 hours. Here, as a control, a group, to which only HBV or HCV was added without the tCDCA or tCA solution, was used. […] Finally, the cell culture medium was treated with 100 μmol/L of tCDCA or tCA, and culture was further performed for 3 days, thereby producing a virus-infected cell line model (hereinafter referred to as “infected cell line”).
(§4) The levels of HCV core and HCV RNA present were measured in each of the HCV-infected cell lines produced and the culture medium collected therefrom. […]

In test [18] the test system is Hepa1c1c7 cell line. Particulars: HCV mixed with tCA (mouse hepatocytes).
From the text: as §2, §3, §4

Consider `C[C@H](CCC(=O)NCCS(=O)(=O)O)[C@H]1CC[C@H]2[C@@H]3[C@H](O)C[C@@H]4C[C@H](O)CC[C@]4(C)[C@H]3CC[C@]12C` [tCDCA, taurochenodeoxycholic acid], for which the “HBV DNA (copies/ml)” value with HepG2 cell line [1] is on record as 3,590,000 ± 1,010,000 copies/ml; in the test with Huh-7 cell line [2], 89,000 ± 1,836 copies/ml; in the test on A498 cell line [3], 73,500 ± 23,292 copies/ml; with MDA-MB-231 cell line [4], 116 copies/ml; in the test with Jurkat cell line [5], 868,000 ± 88,963 copies/ml; in the test on HeLa cell line, 359 copies/ml. Besides, the “HBV DNA (copies/ml)” value with Hepa1c1c7 cell line [6] is reported as 7,036,667 copies/ml; in the test with H4-II-E cell line [7], 73,000 ± 51,929 copies/ml; with RAG cell line it was 11,700 (622, 000) copies/ml; with EL4 cell line [8], 673,000 ± 60,053 copies/ml; in the test with LC540 cell line [9], 149,000 ± 29,866 copies/ml. In addition, the “HBsAg (Index)” value with HepG2 cell line [1] is recorded as 474.70 ± 176.30 Index; in the test on Huh-7 cell line [2], 26.02 ± 5.97 Index; in the test with A498 cell line [3] it was 5.12 ± 0.19 Index; in the test with MDA-MB-231 cell line [4], 169 Index; in the test with Jurkat cell line [5], 1081 ± 329 Index; in the test on HeLa cell line, 61.35 Index. Also, the “HBsAg (Index)” value in the test on Hepa1c1c7 cell line [6] was 508.26 ± 107.6 Index; with H4-II-E cell line [7], 22.73 ± 4.39 Index; in the test with RAG cell line, 21 (744) Index; in the test on EL4 cell line [8] it was 192.7 ± 30.60 Index; in the test with LC540 cell line [9], 3.06 ± 0.44 Index. Besides, the “HBcAg (Index)” value in the test on HepG2 cell line [1] (FACS) worked out at 61.6%; in the test with Huh-7 cell line [2] (FACS), 69.8%; in the test with A498 cell line [3] (FACS), 67.1%; with MDA-MB-231 cell line [4] (FACS) it was 87.4%; in the test with Jurkat cell line [5] (FACS), 37.5%; in the test with HeLa cell line (FACS), 89.6%. The “HBcAg (Index)” value was 77.1% with Hepa1c1c7 cell line [6] (FACS), 32.6% with H4-II-E cell line [7] (FACS), 76.6% with RAG cell line (FACS) and 66.9% in the test with EL4 cell line [8] (FACS). For the same molecule, the “HCV RNA (IU/ml)” value came to 85.233 IU/ml with HepG2 cell line [10]; 628.066 IU/ml in the test on Huh-7 cell line [11]; 4550 IU/ml with A549 cell line; 610 IU/ml in the test with A498 cell line [12]; 605 IU/ml with MDA-MB-231 cell line [13]; 3326.667 IU/ml with Jurkat cell line [14]. For the same molecule, the “HCV RNA (IU/ml)” value in the test with EL4 cell line [15] stood at 1669 IU/ml; in the test with LC540 cell line [16], 21.7 IU/ml.

Take `C[C@H](CCC(=O)NCCS(=O)(=O)O)[C@H]1CC[C@H]2[C@@H]3[C@H](O)C[C@@H]4C[C@H](O)CC[C@]4(C)[C@H]3C[C@H](O)[C@]12C` [tCA, taurocholic acid]: the “HCV RNA (IU/ml)” value in the test with H4-II-E cell line [17] was 197.33 IU/ml; with Hepa1c1c7 cell line [18], 3430 IU/ml.
